We go through 6 compounds from ChEMBL document CHEMBL1150114, “Isolation and structure of a 20,21-epoxybufenolide series from "Ch'an Su"” (J Nat Prod, 2002).

SMILES strings stand for the structures. Converted amounts (≈) assume the structure as drawn. A value given as a limit tells only on which side of the number the result lay.

The term IC50 denotes the concentration at which inhibition is half-maximal.

One assay has as its system MH60. In words: Cytotoxicity against mouse MH60 cells after 72 hrs by MTT assay. It counts as functional, cell-based. To be noted: MH60, 72 h. For orientation: Formazan colour is commonly taken as a measure of viable cells.
The subject of another assay is KB. In words: Cytotoxicity against human KB cells after 72 hrs by MTT assay. It counts as functional, cell-based.

Consider `C[C@]12CC[C@H](OC=O)C[C@H]1CC[C@@H]1[C@@H]2CC[C@]2(C)[C@@H]([C@]34C=CC(=O)O[C@H]3O4)C[C@H]3O[C@]132`, for which the IC50 in the assay on MH60 and with KB was > 25 µg/mL in each case.

Take `C[C@]12CC[C@H](OC=O)C[C@H]1CC[C@@H]1[C@@H]2CC[C@]2(C)[C@@H]([C@@]34C=CC(=O)O[C@@H]3O4)C[C@H]3O[C@]132`: the half-inhibitory concentration (IC50) in the assay on MH60 and in the assay with KB was > 25 µg/mL in each case.

Consider `C[C@]12CC[C@H](O)C[C@H]1CC[C@@H]1[C@@H]2CC[C@]2(C)[C@@H]([C@@]34C=CC(=O)O[C@@H]3O4)C[C@H]3O[C@]132`, for which the IC50 in the assay on MH60 was 1.82 µg/mL (≈ 4.54 µM); in the assay with KB, 10.9 µg/mL (≈ 27.2 µM).

Turning to `C[C@]12CCC(=O)C[C@H]1CC[C@@H]1[C@@H]2CC[C@]2(C)[C@@H]([C@@]34C=CC(=O)O[C@@H]3O4)C[C@H]3O[C@]132`, the IC50 in the assay with MH60 stood at 8.54 µg/mL (≈ 21.4 µM); in the assay on KB it was 18.5 µg/mL (≈ 46.4 µM).

As for `C[C@]12CC[C@H](O)C[C@H]1CC[C@@H]1[C@@H]2CC[C@]2(C)[C@@H]([C@]34C=CC(=O)O[C@H]3O4)C[C@H]3O[C@]132`, the figures for the concentration for half-maximal inhibition (IC50) in the assay with MH60 and with KB were 1.8 µg/mL (≈ 4.49 µM) and 8.09 µg/mL (≈ 20.2 µM), respectively.

For `C[C@]12CC[C@H](O)C[C@H]1CC[C@@H]1[C@@H]2CC[C@]2(C)[C@@H](c3ccc(=O)oc3)C[C@H]3O[C@]132` [BUFOGENIN], the IC50 came out at 10.5 µg/mL (≈ 27.3 µM) in the assay with MH60 and 1.34 µg/mL (≈ 3.48 µM) in the assay with KB.
